Data: patent publication US9453028B2, “Protein kinase C inhibitors and uses thereof” (Rigel Pharmaceuticals, Inc., priority 2009, dated 2016)
pIC50: −log10 of the molar value.

Test system: Human primary T cell
Assay: IL-2 ELISA, human primary T cell, anti-CD3+CD28+ whole cell assay
Type: cell-based
Details: IL-2 by ELISA, human primary T cells stimulated with anti-CD3+CD28
Method: 2. IL-2 ELISA, Human Primary T Cell, Anti-CD3+CD28+ Assays
Human primary T cells were prepared as follows. Whole blood was obtained from a healthy volunteer, mixed 1:1 with PBS, layered on to Ficoll Hypaque (Amersham Pharmacia Biotech, Piscataway, N.J., Catalog #17-1440-03) in 2:1 blood/PBS:ficoll ratio and centrifuged for 30 minutes at 4° C. at 1750 rpm. The cells at the serum:ficoll interface were recovered and washed twice with 5 volumes of PBS. These freshly isolated human peripheral blood mononuclear cells were cultured in Yssel's medium containing 40 U/mL IL2 in a flask pre-coated with 1 μg/mL αCD3 and 5 μg/mL αCD28 (Anti-Human CD3, BD Pharmingen Catalog #555336, Anti-Human CD28, Beckman Coulter Catalog #1M1376). The cells were stimulated for 3-4 days, then transferred to a fresh flask and maintained in RPMI (RPMI-1640 with L-Glutamine; Mediatech, Inc., Herndon Va., cat. #10-040-CM) with 10% FBS and 40 U/mL IL-2. The primary T-cells were then washed twice with PBS to remove the IL-2.
Human primary T cells (100,000 cells per well) were pre-incubated with or without test compound in Yssel's medium for 1 hr at 37° C. Cells were then stimulated by transferring them to round-bottom 96-well plates pre-coated with 1 μg/ml αCD3 and 5 μg/ml αCD28. For counter assay, cells were instead stimulated by adding 8× stock solutions of PMA and ionomycin in Yssels (for final concentrations of 0.5 ng/ml PMA and 0.1 μM ionomycin, both from Calbiochem). Cells were incubated at 37° C. for 24 hours before 100 μL supernatants were harvested for quantification of IL-2 by ELISA using Human IL-2 Duoset ELISA Kit from R and D Systems, Cat. # DY202E.
Several subject compounds were tested according to procedures in the “Characterization of Functional Properties” section. PKC kinase activity was measured using the procedure Section A.1 (Protein Kinase C assay) with the appropriate isoform. The whole cell assay was run according to the procedure in Section A.2 (IL-2 ELISA, Human primary T cell, anti-CD3+CD28+ Assays). […] Blank entries indicate that the IC50 was not determined.

Compound	pIC50 (T-cell)	pIC50
CC1(C)CC(Nc2nc(Nc3ccc4c(c3)-c3nnnn3C(C)(C)O4)ncc2F)CC(C)(C)N1 [Compound 1-9, N2-(5,5-dimethyl-5H-benzo[e]tetrazolo[1,5-c][1,3]oxazin-9-yl)-5-fluoro-N4-(2,2,6,6-tetramethylpiperidin-4-yl)pyrimidine-2,4-diamine]	6.00 to 6.30	
CN1C(C)(C)CC(Nc2nc(Nc3ccc4c(c3)-c3nnnn3C(C)(C)O4)ncc2F)CC1(C)C [Compound 1-10, N2-(5,5-dimethyl-5H-benzo[e]tetrazolo[1,5-c][1,3]oxazin-9-yl)-5-fluoro-N4-(1,2,2,6,6-pentamethylpiperidin-4-yl)pyrimidine-2,4-diamine]	> 6.60	
N2-(4H-benzo[b]pyrrolo[1,2-d][1,4]oxazin-8-yl)-5-fluoro-N4-(1,2,2,6,6-pentamethylpiperidin-4-yl)pyrimidine-2,4-diamine [Compound 1-4]		5.30 to 6.00
N2-(4H-benzo[b]pyrrolo[1,2-d][1,4]oxazin-8-yl)-5-fluoro-N4-(2,2,6,6-tetramethylpiperidin-4-yl)pyrimidine-2,4-diamine [Compound 1-3]		5.30 to 6.00
